Tests used:
KRAS^WT = KRAS^WT (Homo sapiens, UniProt P01116); assay: Wild-type KRAS activation by SOS1cat assay, HTRF; settings: SOS1cat mediated loading of GST-KRAS WT-GDP with fluorescent GTP analogue; 50 nM GST-KRAS WT; read-out: IC50 value biochemical KRAS^wt activation assay
Protocol: (§1) Preparation of test compound dilutions. A 100-fold concentrated solution of the test compound (50 nL) in DMSO was transferred to microtiter test plates (384 or 1,536 wells, Greiner Bio-One, Germany) using either a Hummingbird liquid handler (Digilab, MA, USA) or an Echo acoustic system (Labcyte, CA, USA). Plates were sealed with adhesive foil or heat-sealed and stored at −20° C. until use. Serial dilutions of test compounds were prepared in 100% DMSO using a Precision Pipetting System (BioTek, USA).
(§2) Measurement and evaluation of inhibition data, calculation of IC50 values. Homogeneous time-resolved fluorescence (HTRF) was measured with a PHERAstar reader (BMG, Germany) using the HTRF module (excitation: 337 nm; emission 1: 620 nm, emission 2: 665 nm). The ratio of the emissions at 665 and 620 nm was used as the specific signal for further evaluation. The data were normalized using the controls: DMSO=0% inhibition, inhibition control wells with inhibitor control solution=100% inhibition. Compounds were tested in duplicates at up to 11 concentrations (e.g. 20 μM, 5.7 μM, 1.6 μM, 0.47 μM, 0.13 μM, 38 nM, 11 nM, 3.1 nM, 0.89 nM, 0.25 nM and 0.073 nM). IC50 values were calculated using a four-parameter fit, with a commercial software package (Genedata Screener, Switzerland).
(§3) KRAS^G12C activation by SOS1^cat assay (“On-assay”). This assay quantifies SOS1^cat mediated loading of KRAS^G12C-GDP with a fluorescent GTP analogue. Detection of successful loading was achieved by measuring resonance energy transfer from anti-GST-terbium (FRET donor) bound to GST-KRAS^G12c to the loaded fluorescent GTP analogue (FRET acceptor). The fluorescent GTP analogue EDA-GTP-DY-647P1 [2′/3′-O-(2-aminoethyl-carbamoyl)guanosine-5′-triphosphate labelled with DY-647P1 (Dyomics GmbH, Germany)] was synthesized by Jena Bioscience (Germany) and supplied as a 1 mM aqueous solution. A KRAS^G12C working solution was prepared in assay buffer [10 mM HEPES pH 7.4 (AppliChem), 150 mM NaCl (Sigma), 5 mM MgCl2 (Sigma), 1 mM DTT (Thermo Fisher), 0.05% BSA Fraction V pH 7.0 (ICN Biomedicals), 0.0025% (v/v) Igepal (Sigma)] containing 100 nM GST-KRAS^G12C and 2 nM anti-GST-terbium (Cisbio, France). A SOS1^cat working solution was prepared in assay buffer containing 20 nM SOS1^cat and 200 nM EDA-GTP-DY-647P1. An inhibitor control solution was prepared in assay buffer containing 200 nM EDA-GTP-DY-647P1 without SOS1^cat. All steps of the assay were performed at 20° C. A volume of 2.5 μL of the KRAS^G12C working solution was added to all wells of the test plate using a Multidrop dispenser (Thermo LabSystems). After 180 min, 2.5 μL of the SOS1^cat working solution was added to all wells, except for the inhibitor control solution wells. After 30 min incubation, HTRF was measured.
Wild-type KRAS activation by SOS1^cat assay. This assay quantifies human SOS1^cat mediated loading of wild-type GST-KRAS^WT-GDP with a fluorescent GTP analogue. The assay was performed similar to the KRAS^G12C activation by SOS1^cat assay. GST-KRAS^G12C was replaced by GST-KRAS^WT, which was used at 50 nM final concentration.

KRAS^G12C = KRAS^G12C (Homo sapiens, UniProt P01116, G12C); assay: KRAS G12C activation by SOS1cat assay (On-assay), HTRF; settings: SOS1cat mediated loading of GST-KRAS G12C-GDP with fluorescent GTP analogue; 180 min preincubation; 20° C.; read-out: IC50 value biochemical KRAS^G12C activation assay
Protocol: as §1, §2, §3

[1] = target: recombinant kRas mutant (G12C; C51S; C80L; C118S) (Homo sapiens, UniProt P01116, C118S/C51S/C80L/G12C); assay: Covalent binding assay, intact mass LC-MS; settings: 25 μM protein, 25 μM compound, room temperature, 2 h
Protocol: The percentage of covalent adduct formation at KRas G12C was determined by intact mass determination. To this end 25 μM recombinant kRas mutant (G12C; C51S; C80L; C118S) (storage buffer: 50 mM Tris, pH=8; 50 mM NaCl) were incubated with 25 μM of compound (1% v/v final DMSO concentration) at room temperature for 2 h. For LC-MS analysis the reaction was acidified by adding 4 μL of 4% v/v TFA to 20 μL reaction volume.
Liquid chromatography-mass spectrometry (LC-MS) analysis was performed using a Waters SYNAPT G2-S quadrupole time-of-flight mass spectrometer connected to a Waters nanoAcquity UPLC system. Samples were loaded on a 2.1×5 mm mass prep C4 guard column (Waters) and desalted with a short gradient (3 min.) of increasing concentrations of acetonitrile at a flow rate of 100 μL/min. Spectra were analyzed by using MassLynx v4.1 software and deconvoluted with the MaxEnt1 algorithm.
Percent conversion was determined by the ratio of signal intensities of apo-kRas and kRas+inhibitor.

SMILES	IC50 (KRAS^WT)	IC50 (KRAS^G12C)	Covalent Binding Assay (% binding) [1]
C=CC(=O)N1CCC(c2nc3cnc(-c4c(O)cccc4F)cc3c(=O)[nH]2)C1 (stereo not drawn) [Example 39, 6-(2-Fluoro-6-hydroxyphenyl)-2-[1-(prop-2-enoyl)pyrrolidin-3-yl]pyrido[3,4-d]pyrimidin-4(3H)-one]	> 20 µM	2.6 µM	73%
C=CC(=O)N1CCC(c2nc3cnc(-c4c(C)ccc5[nH]ncc45)cc3c(=O)[nH]2)C1 (stereo not drawn) [Example 40, 6-(5-Methyl-1H-indazol-4-yl)-2-[1-(prop-2-enoyl)pyrrolidin-3-yl]pyrido[3,4-d]pyrimidin-4(3H)-one]	> 20 µM	4.7 µM	66%
C=CC(=O)N1CCC(c2cc3cc(O)c(-c4ncccc4F)cc3c(=O)[nH]2)C1 (stereo not drawn) [Example 10, 3-(1-Acryloylpyrrolidin-3-yl)-7-(3-fluoropyridin-2-yl)-6-hydroxy-isoquinolin-1(2H)-one]	> 20 µM	> 20 µM	0%
C=CC(=O)N1CCC(c2cc3cnc(-c4c(F)cccc4OC)cc3c(=O)[nH]2)C1 (stereo not drawn) [Example 41, 7-(2-Fluoro-6-methoxyphenyl)-3-[1-(prop-2-enoyl)pyrrolidin-3-yl]-2,6-naphthyridin-1(2H)-one]	> 20 µM	> 20 µM	32%
C=CC(=O)N1CCC(c2nc3ccc(-c4c(O)cccc4F)nc3c(=O)[nH]2)C1 (stereo not drawn) [Example 38, 6-(2-Fluoro-6-hydroxyphenyl)-2[1-(prop-2-enoyl)pyrrolidin-3-yl]pyrido[3,2-d]pyrimidin-4(3H)-one]	> 20 µM	> 20 µM	0%
C=CC(=O)N1CCC(c2nc3ccc(-c4cccnc4N4CCOCC4)cc3c(=O)[nH]2)C1 (stereo not drawn) [Example 20, 6-[2-(Morpholin-4-yl)pyridin-3-yl]-2-[1-(prop-2-enoyl)pyrrolidin-3-yl]quinazolin-4(3H)-one]	> 20 µM	> 20 µM	3%
C=CC(=O)N1CCC(c2nc3ccc(-c4c(F)cccc4OC)cc3c(=O)[nH]2)C1 (stereo not drawn) [Example 11]	> 20 µM	16 µM	41%
C=CC(=O)N1CCC(c2nc3cc(Cl)c(-c4c(O)cccc4F)cc3c(=O)[nH]2)C1 (stereo not drawn) [Example 24, 7-Chloro-6-(2-fluoro-6-hydroxyphenyl)-2-[1-(prop-2-enoyl)pyrrolidin-3-yl]quinazolin-4(3H)-one]	> 20 µM	9.1 µM	53%
C=CC(=O)N1CCC(c2nc3cc(Cl)c(-c4ccccc4F)cc3c(=O)[nH]2)C1 (stereo not drawn) [Example 22, 7-Chloro-6-(2-fluorophenyl)-2-[1-(prop-2-enoyl)pyrrolidin-3-yl]quinazolin-4(3H)-one]	> 20 µM	18 µM	31%

Further lines, results first:

IC50 (KRAS^WT)	IC50 (KRAS^G12C)	Covalent Binding Assay (% binding) [1]	SMILES
> 20 µM	> 20 µM	0%	C=CC(=O)N1CCC(c2cc3ncc(-c4sc(C)nc4C)cc3c(=O)[nH]2)C1 (stereo not drawn) [Example 34, 3-(2,4-Dimethyl-1,3-thiazol-5-yl)-7-[1-(prop-2-enoyl)pyrrolidin-3-yl]-1,6-naphthyridin-5(6H)-one]
> 20 µM	> 20 µM	13%	C=CC(=O)N1CCC(c2cc3ncc(-c4cccc5ncccc45)cc3c(=O)[nH]2)C1 (stereo not drawn) [Example 32, 7-[1-(Prop-2-enoyl)pyrrolidin-3-yl]-3-(quinolin-5-yl)-1,6-naphthyridin-5(6H)-one]
> 20 µM	> 20 µM	8%	C=CC(=O)N1CCC(c2cc3ccc(-c4cccc5[nH]ccc45)cc3c(=O)[nH]2)C1 (stereo not drawn) [Example 3, 7-(1H-Indol-4-yl)-3-[1-(prop-2-enoyl)pyrrolidin-3-yl]isoquinolin-1(2H)-one]
> 20 µM	5.3 µM	69%	C=CC(=O)N1CCC(c2cc3ncc(-c4ccccc4F)cc3c(=O)[nH]2)C1 (stereo not drawn) [Example 30, 3-(2-Fluorophenyl)-7-[1-(prop-2-enoyl)pyrrolidin-3-yl]-1,6-naphthyridin-5(6H)-one]
